From patent US7387788B1 (priority 2003, dated 2008)

Columns and labels:
[1] = oral administration; cited from earlier work
[2] = in an alcohol/water solvent; cited from earlier work
[3] = In vitro skin permeation, Franz cells, frozen human abdominal skin; format: in vitro ADME; conditions: Example 7
Method: Percutaneous absorption was measured using the in vitro cadaver skin finite dose technique. Cryo-preserved, human cadaver trunk skin was obtained from a skin bank and stored in water-impermeable plastic bags at <−70° C. until used.
Briefly, skin samples were prepared as follows.
The dermal cell was filled with receptor solution.
Experiments were performed under non-occlusive conditions.
Analysis of the samples was performed by HPLC.
Twenty-five micro liters of sample were injected.
Formulations 7.1 and 7.3 were made essentially as described above in the Materials and Methods. Formulation 7.1 and 7.2 are identical, but formulation 7.1 was tested on pig ear skin, and formulation 7.2 was tested on frozen human abdominal skin. Formulation 7.3 (Reference marketed product) was also tested on frozen human abdominal skin. Permeation studies used Franz cells as described in the Materials and Methods.
Individual gel amounts applied to tested skin samples were approximately 10 mg. Studies were performed according to OECD (Organization for Economic Cooperation and Development) guidelines (Organization for Economic Co-operation and Development (OECD), Environment Directorate. “Guidance document for the conduct of skin absorption studies,” OECD series on testing and assessment, No. 28. Paris, version 5 Mar. 2004).

[4] = In vitro skin permeation, Franz cells, finite dose, non-occlusive, pig ear skin; conditions: topical or ocular, 10 mg, pH 7.4
Method: A finite dose (for example: 4-7 mg/cm^2) of formulation is applied to the outer surface of the skin and drug absorption is measured by monitoring its rate of appearance in the receptor solution bathing the inner surface of the skin. Data defining total absorption, rate of absorption, as well as skin content can be accurately determined in this model.
Pig skin can be prepared essentially as described below for human skin.
Prior to the experiment, skin was removed from the bag, placed in water (approximately 37° C.) for five minutes, and then cut into sections large enough to fit on 1 cm^2 Franz Cells (Crown Glass Co., Somerville, N.J.). Briefly, skin samples were prepared as follows. A small volume of phosphate buffered saline (PBS) was used to cover the bottom of the Petri dishes. Skin disks generally depleted of fat layers were placed in the Petri dishes for hydration. A Stadie-Riggs manual tissue microtome was used for slicing excised skin samples. Approximately 2 mL of PBS was placed into the middle cavity of the microtome as slicing lubricant. Skin disks were placed, dermal side up, into the middle cavity of the microtome. Filter paper was soaked with PBS, inserted in the cavity just above the skin disk. The filter paper prevented the dermis from sliding onto the top of the cutting block and helped to insure more precise cutting. […]

[5] = cited from earlier work

## NCCCC(O)(P(=O)(O)O)P(=O)(O)O [sodium alendronate]
[1]
  fraction of the drug absorbed when administered orally: about 0.6%

## CN1CCC[C@H]1c1cccnc1 [nicotine, 1-methyl-2-(3-pyridyl)pyrrolidone]
[2]
  apparent pKa of nicotine: 7.7
[3]; p=0.009
  change of transdermal in vitro bioavailability, frozen human skin versus fresh pig skin: −52%
[3]; topical or ocular, 10 mg, pH 7.4, frozen human skin, gel of Table 13 (formulation 7.2)
  bioavailability at 16 h, 1.5 % FBE: 18%
[4]
  bioavailability at 16 h, 1.5 % FBE: 38%
[5]
  Oral bioavailability: about 30%
